# Results taken from patent US20110105397A1, “METHOD FOR TREATING HEART FAILURE WITH STRESSCOPIN-LIKE PEPTIDES” (priority 2009, published 2011).
# Several values for one entry are separate records, joined by “and”; a condition that tells them apart may be missing. Identical values can stand only once. Like-named read-outs stand apart in the source and are kept apart here.
# Columns and labels:
# [1] = tested on: anaesthetized mongrel dogs; test: Hemodynamic, angiographic, echocardiographic profile in anaesthetized healthy dogs, 30-minute IV infusion; assay type: in vivo, dog; details: for CO (Cardiac output) / HR (Heart rate) / LV + dP/dt (LV contractility) / LVEDA (LV end diastolic area) / LVEDV (LV end diastolic volume) / LVEF (LV ejection fraction) / LVESA (LV end systolic area) / LVESV (LV end systolic volume) / LVFAS (LV fractional area of shortening) / PSAP (Peak systolic aortic pressure) / SV (Stroke volume): 30 min
# Experimental: The effects of h-SCP (SEQ ID NO: 1) on cardiovascular function were also assessed in anaesthetized mongrel dogs following intravenous bolus and 30-minute infusions. Hemodynamic and left ventricular systolic and diastolic function was evaluated using conventional hemodynamic, angiographic, echocardiographic, and radiographic methods with the results summarized in Table 16.
# The findings described above were further examined in a study, in which h-SCP (SEQ ID NO:1) was infused over a 30-minute period at the same total doses that were administered by bolus as described above with the results presented in Table 17 and FIGS. 11A & B. As in the case of bolus dosing h-SCP (SEQ ID NO:1) elicited dose- (infusion-) dependent changes in blood pressure, left ventricular systolic and diastolic function, and heart rate. However, at the lower range of the dose- (infusion-) response curve there was a pronounced lessening in the positive chronotropic and blood pressure response with marked and significant increase in cardiac function measured as increased CO and LVEF. […] The corresponding plasma concentration of h-SCP (SEQ ID NO:1) was 4,577 pg/mL.
# male dogs = test: GLP cardiovascular safety study in male dogs; assay type: in vivo, dog
# Experimental: The NOAEL of 33.3 ng/kg/min was determined in a GLP cardiovascular safety study in male dogs, which is considered to be the most relevant and sensitive species for cardiovascular drugs.
# A NOAEL of 33.3 ng/kg/min was determined in a GLP cardiovascular safety study in male dogs, which is considered to be the most relevant and sensitive species for cardiovascular drugs. […] Based on these values a starting dose of 0.1 ng/kg/min was selected.
# [2] = Human pharmacokinetics, healthy subjects, 24- or 72-hour infusion of 54 ng/kg/min; details: in vivo; for Vd: Vss; for Tmax: median
# Experimental: In healthy subjects following a 24- or 72-hour infusion of 54 ng/kg/min of h-SCP (SEQ ID NO:1) noncompartmental pharmacokinetic analyses were performed on plasma concentrations of h-SCP (SEQ ID NO:1).
# [3] = tested on: subjects with heart failure; test: Echocardiography substudy in heart failure subjects; assay type: in vivo, human
# Experimental: An echocardiography substudy was conducted to examine the impact of h-SCP (SEQ ID NO:1) on cardiodynamic parameters. Five subjects elected to participate in the echocardiography substudy. One subject received placebo and 4 subjects received h-SCP (SEQ ID NO:1) at doses ranging from 9 to 45 ng/kg/min during their last 2.5-hour infusion period when the echocardiogram was obtained. […] Because of the small number of subjects who participated in this substudy and the varied dose administered the results are not conclusionary, but mainly indicative of the effect.
# [4] = male, 54 ng/kg, healthy subjects, 54 ng/kg/min, 24 Hours Male, mean, N = 7
# [5] = male, 54 ng/kg, healthy subjects, 54 ng/kg/min, 72 Hours Male, mean, N = 7
substance,measurement,setting,value
"H-TKFTLSLDVPTNIMNLLFNIAKAKNLRAQAAANAHLMAQI-NH2 [SEQ ID NO: 1, TKFTLSLDVPTNIMNLLFNIAKAKNLRAQAAANAHLMAQI-NH2]",CO (Cardiac output),[1]; IV infusion 22 ng/kg/min,2.32 L/min
same,HR (Heart rate),[1]; IV infusion 22 ng/kg/min,81.2 beats/min
same,LV + dP/dt (LV contractility),[1]; IV infusion 22 ng/kg/min,1598 mmHg/sec
same,LVEDA (LV end diastolic area),[1]; IV infusion 22 ng/kg/min,12.2 cm^2
same,LVEDV (LV end diastolic volume),[1]; IV infusion 22 ng/kg/min,53.0 mL
same,LVEF (LV ejection fraction),[1]; IV infusion 22 ng/kg/min,54.0%
same,LVESA (LV end systolic area),[1]; IV infusion 22 ng/kg/min,6.3 cm^2
same,LVESV (LV end systolic volume),[1]; IV infusion 22 ng/kg/min,24.5 mL
same,LVFAS (LV fractional area of shortening),[1]; IV infusion 22 ng/kg/min,49%
same,PSAP (Peak systolic aortic pressure),[1]; IV infusion 22 ng/kg/min,95.0 mmHg
same,SV (Stroke volume),[1]; IV infusion 22 ng/kg/min,28.5 mL
same,CO (Cardiac output),[1]; IV infusion 43 ng/kg/min,2.82 L/min
same,HR (Heart rate),[1]; IV infusion 43 ng/kg/min,88.7 beats/min
same,LV + dP/dt (LV contractility),[1]; IV infusion 43 ng/kg/min,1875 mmHg/sec
same,LVEDA (LV end diastolic area),[1]; IV infusion 43 ng/kg/min,11.9 cm^2
same,LVEDV (LV end diastolic volume),[1]; IV infusion 43 ng/kg/min,55.2 mL
same,LVEF (LV ejection fraction),[1]; IV infusion 43 ng/kg/min,57.5%
same,LVESA (LV end systolic area),[1]; IV infusion 43 ng/kg/min,5.8 cm^2
same,LVESV (LV end systolic volume),[1]; IV infusion 43 ng/kg/min,23.5 mL
same,LVFAS (LV fractional area of shortening),[1]; IV infusion 43 ng/kg/min,51.5%
same,PSAP (Peak systolic aortic pressure),[1]; IV infusion 43 ng/kg/min,95.2 mmHg
same,SV (Stroke volume),[1]; IV infusion 43 ng/kg/min,31.7 mL
same,CO (Cardiac output),[1]; IV infusion 86 ng/kg/min,2.81 L/min
same,HR (Heart rate),[1]; IV infusion 86 ng/kg/min,91.0 beats/min
same,LV + dP/dt (LV contractility),[1]; IV infusion 86 ng/kg/min,1622 mmHg/sec
same,LVEDA (LV end diastolic area),[1]; IV infusion 86 ng/kg/min,11.8 cm^2
same,LVEDV (LV end diastolic volume),[1]; IV infusion 86 ng/kg/min,54.2 mL
same,LVEF (LV ejection fraction),[1]; IV infusion 86 ng/kg/min,56.5%
same,LVESA (LV end systolic area),[1]; IV infusion 86 ng/kg/min,5.9 cm^2
same,LVESV (LV end systolic volume),[1]; IV infusion 86 ng/kg/min,23.5 mL
same,LVFAS (LV fractional area of shortening),[1]; IV infusion 86 ng/kg/min,50.0%
same,PSAP (Peak systolic aortic pressure),[1]; IV infusion 86 ng/kg/min,91.7 mmHg
same,SV (Stroke volume),[1]; IV infusion 86 ng/kg/min,30.7 mL
same,CO (Cardiac output),[1]; IV infusion 146 ng/kg/min,2.97 L/min
same,HR (Heart rate),[1]; IV infusion 146 ng/kg/min,102.5 beats/min
same,LV + dP/dt (LV contractility),[1]; IV infusion 146 ng/kg/min,1594 mmHg/sec
same,LVEDA (LV end diastolic area),[1]; IV infusion 146 ng/kg/min,11.5 cm^2
same,LVEDV (LV end diastolic volume),[1]; IV infusion 146 ng/kg/min,49.5 mL
same,LVEF (LV ejection fraction),[1]; IV infusion 146 ng/kg/min,58.2%
same,LVESA (LV end systolic area),[1]; IV infusion 146 ng/kg/min,5.6 cm^2
same,LVESV (LV end systolic volume),[1]; IV infusion 146 ng/kg/min,20.7 mL
same,LVFAS (LV fractional area of shortening),[1]; IV infusion 146 ng/kg/min,51%
same,PSAP (Peak systolic aortic pressure),[1]; IV infusion 146 ng/kg/min,90.0 mmHg
same,SV (Stroke volume),[1]; IV infusion 146 ng/kg/min,28.7 mL
same,CO (Cardiac output),[1]; IV infusion 437 ng/kg/min,3.25 L/min
same,LV + dP/dt (LV contractility),[1]; IV infusion 437 ng/kg/min,1657 mmHg/sec
same,LVEDA (LV end diastolic area),[1]; IV infusion 437 ng/kg/min,10.8 cm^2
same,LVEDV (LV end diastolic volume),[1]; IV infusion 437 ng/kg/min,46.0 mL
same,LVEF (LV ejection fraction),[1]; IV infusion 437 ng/kg/min,60.7%
same,LVESA (LV end systolic area),[1]; IV infusion 437 ng/kg/min,5.1 cm^2
same,LVESV (LV end systolic volume),[1]; IV infusion 437 ng/kg/min,18.2 mL
same,LVFAS (LV fractional area of shortening),[1]; IV infusion 437 ng/kg/min,53.5%
same,PSAP (Peak systolic aortic pressure),[1]; IV infusion 437 ng/kg/min,89.5 mmHg
same,SV (Stroke volume),[1]; IV infusion 437 ng/kg/min,28 mL
same,HR (Heart rate),"[1]; IV infusion 437 ng/kg/min, junctional tachycardia",117.3 beats/min
same,minimum anticipated biological effect level (MABEL),[1]; healthy dogs,22 ng/kg/min
same,infusion rate for minimal effect,"[1]; healthy dogs, 30-minute infusion",43 ng/kg/min
same,upper limit of plasma concentration,"male dogs; dog, in vivo",12.0 ng/mL
same,safety margin,male dogs; expected Cpss at 0.1 ng/kg/min versus upper limit in dogs,"1,390 fold"
same,NOAEL,male dogs; male dogs,33.3 ng/kg/min
same,half-life,"[2]; female, 54 ng/kg, T1/2",23.4 h
same,half-life,"[2]; female, 54 ng/kg, T1/2, effective",5.84 h
same,Vd,"[2]; female, 54 ng/kg",2.72 L/kg
same,AUC(0-inf),"[2]; female, 54 ng/kg, healthy subjects, 54 ng/kg/min, 72 Hours Female, mean, N = 5",740 ng·h/mL
same,Cmax,"[2]; female, 54 ng/kg, healthy subjects, 54 ng/kg/min, 72 Hours Female, mean, N = 6",11.5 ng/mL
same,clearance,"[2]; female, 54 ng/kg, healthy subjects, 54 ng/kg/min, 72 Hours Female, mean, N = 6, read-out: CL (converted)",5.5 mL/min/kg
same,Tmax,"[2]; female, 54 ng/kg, healthy subjects, 54 ng/kg/min, 72 Hours Female, N = 6",18 h
same,half-life,"[2]; 54 ng/kg/min, healthy subjects, 24- or 72-hour infusion of 54 ng/kg/min, read-out: Mean terminal half-life",23.4 to 28.8 h
same,half-life,"[2]; 54 ng/kg/min, healthy subjects, 24- or 72-hour infusion of 54 ng/kg/min, read-out: effective half-life",5.84 to 9.62 h
same,clearance,"[2]; 54 ng/kg/min, healthy subjects, 24- or 72-hour infusion of 54 ng/kg/min, read-out: mean clearance",4.67 to 6.33 mL/min/kg
same,T1/2,"[2]; male, 54 ng/kg",28.81 h
same,"T1/2, effective","[2]; male, 54 ng/kg",9.62 h
same,Vss,"[2]; male, 54 ng/kg",4.94 L/kg
same,half-life,"[2]; male, 54 ng/kg, T1/2",25.7 h
same,half-life,"[2]; male, 54 ng/kg, T1/2, effective",9.37 h
same,Vd,"[2]; male, 54 ng/kg",3.7 L/kg
same,AUC(0-inf),[2]; [4],283 ng·h/mL
same,Cmax,[2]; [4],12.2 ng/mL
same,clearance,"[2]; male, 54 ng/kg, healthy subjects, 54 ng/kg/min, 24 Hours Male, mean, N = 7, read-out: CL (converted)",4.67 mL/min/kg
same,Tmax,"[2]; male, 54 ng/kg, healthy subjects, 54 ng/kg/min, 24 Hours Male, N = 7",16 h
same,AUC(0-inf),[2]; [5],632 ng·h/mL
same,Cmax,[2]; [5],10.2 ng/mL
same,clearance,"[2]; male, 54 ng/kg, healthy subjects, 54 ng/kg/min, 72 Hours Male, mean, N = 7, read-out: CL (converted)",6.33 mL/min/kg
same,Tmax,"[2]; male, 54 ng/kg, healthy subjects, 54 ng/kg/min, 72 Hours Male, N = 7",24 h
same,ejection fraction after infusion,"[3]; one subject, 9 ng/kg/min, from 20%",24.5%
same,ejection fraction after infusion,"[3]; one subject, 36 ng/kg/min, from 25.0%",30.3%
same,ejection fraction after infusion,"[3]; two subjects, 45 ng/kg/min, from 36.0% and from 28.0%, listed as h-SCP",34.7% and 26.1%
